Legend:
Test in all cases: biochemical
Parameters in all cases: Upstate KinaseProfiler in vitro kinase activity assay, per cent of DMSO control
Conditions in all cases: read-out: Activity (% of Control)
ALK(h) = ALK(h) (Homo sapiens, UniProt Q9UM73)
Outline: (§1)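 Profiling done with Upstate KinaseProfiler service across 100 kinases, resveratrol tested at 20 μM; activity expressed relative to control.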

CDK1/cyclinB(h) = CDK1/cyclinB(h) (Homo sapiens, UniProt P06493)
Outline: as §1

CHK1(h) = molecular target: T1, CHK1(h) (Homo sapiens, UniProt O14757)
T1 construct: gene CHEK1
Outline: as §1

Flt1(h) = Flt1(h) (Homo sapiens, UniProt P17948)
Outline: as §1

IKKß(h) = molecular target: T2, IKKß(h) (Homo sapiens, UniProt O14920)
T2 construct: gene IKBKB
Outline: as §1

NEK7(h) = NEK7(h) (Homo sapiens, UniProt Q8TDX7)
Outline: as §1

PAK4(h) = PAK4(h) (Homo sapiens, UniProt O96013)
Outline: as §1

PDK1(h) = molecular target: T3, PDK1(h) (Homo sapiens, UniProt O15530)
T3 construct: gene PDPK1
Outline: as §1

PI 3-Kinaseβ(h) = molecular target: T4, PI 3-Kinaseβ(h) (Homo sapiens, UniProt P42338)
T4 construct: gene PIK3CB
Outline: as §1

T3 sequence (O15530 whole entry): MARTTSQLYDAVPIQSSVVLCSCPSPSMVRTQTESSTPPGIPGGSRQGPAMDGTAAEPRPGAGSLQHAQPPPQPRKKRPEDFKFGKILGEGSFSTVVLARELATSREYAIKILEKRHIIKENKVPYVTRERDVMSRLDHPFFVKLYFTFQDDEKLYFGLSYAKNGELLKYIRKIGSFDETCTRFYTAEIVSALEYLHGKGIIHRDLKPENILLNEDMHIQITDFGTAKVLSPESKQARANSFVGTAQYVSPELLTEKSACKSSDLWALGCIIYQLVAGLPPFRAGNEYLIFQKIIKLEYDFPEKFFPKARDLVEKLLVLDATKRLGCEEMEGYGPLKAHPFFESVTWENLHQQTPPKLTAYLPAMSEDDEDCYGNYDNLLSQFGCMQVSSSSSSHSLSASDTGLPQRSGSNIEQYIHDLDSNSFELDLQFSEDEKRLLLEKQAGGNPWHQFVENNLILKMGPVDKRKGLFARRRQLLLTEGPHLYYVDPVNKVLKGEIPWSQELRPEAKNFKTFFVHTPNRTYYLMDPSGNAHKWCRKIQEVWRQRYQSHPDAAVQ
Sequence of ALK(h) (Q9UM73 whole entry): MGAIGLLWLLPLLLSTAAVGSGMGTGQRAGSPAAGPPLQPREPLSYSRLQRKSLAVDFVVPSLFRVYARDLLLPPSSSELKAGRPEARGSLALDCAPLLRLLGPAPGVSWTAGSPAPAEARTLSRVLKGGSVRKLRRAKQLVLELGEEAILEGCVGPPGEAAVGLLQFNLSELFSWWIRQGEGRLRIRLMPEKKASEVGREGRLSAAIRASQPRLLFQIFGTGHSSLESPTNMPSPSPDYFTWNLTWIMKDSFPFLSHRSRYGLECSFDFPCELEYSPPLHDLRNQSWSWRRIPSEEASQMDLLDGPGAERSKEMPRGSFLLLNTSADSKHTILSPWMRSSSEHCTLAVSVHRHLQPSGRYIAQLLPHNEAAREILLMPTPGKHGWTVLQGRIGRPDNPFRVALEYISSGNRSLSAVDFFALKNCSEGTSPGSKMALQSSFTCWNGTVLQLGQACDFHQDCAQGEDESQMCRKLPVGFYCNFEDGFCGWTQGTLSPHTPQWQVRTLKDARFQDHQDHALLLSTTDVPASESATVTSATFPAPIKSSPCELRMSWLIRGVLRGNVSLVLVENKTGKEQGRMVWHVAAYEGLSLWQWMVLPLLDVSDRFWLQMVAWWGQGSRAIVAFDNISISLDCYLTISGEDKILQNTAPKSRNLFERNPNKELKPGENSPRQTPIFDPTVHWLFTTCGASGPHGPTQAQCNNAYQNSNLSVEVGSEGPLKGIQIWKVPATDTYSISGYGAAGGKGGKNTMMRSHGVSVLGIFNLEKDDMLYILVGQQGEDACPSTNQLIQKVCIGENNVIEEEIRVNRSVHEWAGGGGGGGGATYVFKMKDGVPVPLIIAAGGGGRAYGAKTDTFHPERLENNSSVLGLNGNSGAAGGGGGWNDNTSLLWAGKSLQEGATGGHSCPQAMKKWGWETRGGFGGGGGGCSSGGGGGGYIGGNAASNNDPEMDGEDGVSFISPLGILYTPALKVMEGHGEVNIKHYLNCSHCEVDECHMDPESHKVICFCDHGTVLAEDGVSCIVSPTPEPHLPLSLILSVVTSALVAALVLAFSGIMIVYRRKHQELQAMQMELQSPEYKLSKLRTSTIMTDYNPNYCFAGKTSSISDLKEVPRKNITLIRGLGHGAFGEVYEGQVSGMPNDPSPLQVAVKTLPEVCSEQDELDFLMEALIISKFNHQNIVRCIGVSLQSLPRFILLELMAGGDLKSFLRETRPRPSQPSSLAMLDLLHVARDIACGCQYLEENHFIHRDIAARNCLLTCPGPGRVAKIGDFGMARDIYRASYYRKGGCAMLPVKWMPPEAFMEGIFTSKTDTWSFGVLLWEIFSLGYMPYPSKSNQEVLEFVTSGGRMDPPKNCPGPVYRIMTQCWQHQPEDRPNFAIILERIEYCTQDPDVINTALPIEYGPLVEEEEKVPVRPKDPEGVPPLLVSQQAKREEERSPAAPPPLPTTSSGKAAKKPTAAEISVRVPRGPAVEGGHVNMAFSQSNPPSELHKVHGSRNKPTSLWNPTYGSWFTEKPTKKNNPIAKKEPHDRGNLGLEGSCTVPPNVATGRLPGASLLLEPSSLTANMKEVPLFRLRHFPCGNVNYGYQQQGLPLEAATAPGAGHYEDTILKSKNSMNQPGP
T2 sequence (O14920 whole entry): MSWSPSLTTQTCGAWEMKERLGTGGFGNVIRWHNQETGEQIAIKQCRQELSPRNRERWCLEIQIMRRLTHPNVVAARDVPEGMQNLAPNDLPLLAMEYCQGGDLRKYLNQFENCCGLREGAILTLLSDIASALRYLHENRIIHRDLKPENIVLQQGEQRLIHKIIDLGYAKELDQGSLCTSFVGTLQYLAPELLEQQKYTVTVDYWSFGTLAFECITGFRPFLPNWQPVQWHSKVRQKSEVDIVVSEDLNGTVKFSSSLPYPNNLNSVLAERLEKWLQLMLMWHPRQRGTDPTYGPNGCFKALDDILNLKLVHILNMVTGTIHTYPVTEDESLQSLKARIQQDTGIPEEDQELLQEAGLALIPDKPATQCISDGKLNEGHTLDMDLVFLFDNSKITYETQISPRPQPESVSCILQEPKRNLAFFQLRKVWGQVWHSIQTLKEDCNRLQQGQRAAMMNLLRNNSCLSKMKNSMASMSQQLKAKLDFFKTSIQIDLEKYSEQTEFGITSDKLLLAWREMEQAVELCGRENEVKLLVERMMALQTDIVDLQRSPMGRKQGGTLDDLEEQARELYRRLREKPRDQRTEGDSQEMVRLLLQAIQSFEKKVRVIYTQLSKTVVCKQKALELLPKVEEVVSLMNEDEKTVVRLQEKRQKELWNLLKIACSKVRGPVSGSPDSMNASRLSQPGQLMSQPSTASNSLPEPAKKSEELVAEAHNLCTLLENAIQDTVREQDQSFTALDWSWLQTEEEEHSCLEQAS
Sequence of PAK4(h) (O96013 whole entry): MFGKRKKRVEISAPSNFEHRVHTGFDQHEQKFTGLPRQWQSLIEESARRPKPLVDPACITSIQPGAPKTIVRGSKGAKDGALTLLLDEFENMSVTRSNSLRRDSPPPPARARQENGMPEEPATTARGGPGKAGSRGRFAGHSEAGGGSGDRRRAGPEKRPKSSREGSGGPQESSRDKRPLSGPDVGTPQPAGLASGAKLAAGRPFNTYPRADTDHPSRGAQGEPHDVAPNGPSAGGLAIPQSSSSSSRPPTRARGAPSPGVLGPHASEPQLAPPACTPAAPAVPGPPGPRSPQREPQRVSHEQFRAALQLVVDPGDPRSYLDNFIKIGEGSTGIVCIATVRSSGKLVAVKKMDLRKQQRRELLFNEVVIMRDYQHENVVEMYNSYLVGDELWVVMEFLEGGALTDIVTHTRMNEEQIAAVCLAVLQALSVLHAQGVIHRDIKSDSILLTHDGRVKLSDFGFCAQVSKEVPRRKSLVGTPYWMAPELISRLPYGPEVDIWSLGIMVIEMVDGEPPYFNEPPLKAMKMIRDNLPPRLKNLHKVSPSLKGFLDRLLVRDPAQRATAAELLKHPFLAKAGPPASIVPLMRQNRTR
Sequence of Flt1(h) (P17948 whole entry): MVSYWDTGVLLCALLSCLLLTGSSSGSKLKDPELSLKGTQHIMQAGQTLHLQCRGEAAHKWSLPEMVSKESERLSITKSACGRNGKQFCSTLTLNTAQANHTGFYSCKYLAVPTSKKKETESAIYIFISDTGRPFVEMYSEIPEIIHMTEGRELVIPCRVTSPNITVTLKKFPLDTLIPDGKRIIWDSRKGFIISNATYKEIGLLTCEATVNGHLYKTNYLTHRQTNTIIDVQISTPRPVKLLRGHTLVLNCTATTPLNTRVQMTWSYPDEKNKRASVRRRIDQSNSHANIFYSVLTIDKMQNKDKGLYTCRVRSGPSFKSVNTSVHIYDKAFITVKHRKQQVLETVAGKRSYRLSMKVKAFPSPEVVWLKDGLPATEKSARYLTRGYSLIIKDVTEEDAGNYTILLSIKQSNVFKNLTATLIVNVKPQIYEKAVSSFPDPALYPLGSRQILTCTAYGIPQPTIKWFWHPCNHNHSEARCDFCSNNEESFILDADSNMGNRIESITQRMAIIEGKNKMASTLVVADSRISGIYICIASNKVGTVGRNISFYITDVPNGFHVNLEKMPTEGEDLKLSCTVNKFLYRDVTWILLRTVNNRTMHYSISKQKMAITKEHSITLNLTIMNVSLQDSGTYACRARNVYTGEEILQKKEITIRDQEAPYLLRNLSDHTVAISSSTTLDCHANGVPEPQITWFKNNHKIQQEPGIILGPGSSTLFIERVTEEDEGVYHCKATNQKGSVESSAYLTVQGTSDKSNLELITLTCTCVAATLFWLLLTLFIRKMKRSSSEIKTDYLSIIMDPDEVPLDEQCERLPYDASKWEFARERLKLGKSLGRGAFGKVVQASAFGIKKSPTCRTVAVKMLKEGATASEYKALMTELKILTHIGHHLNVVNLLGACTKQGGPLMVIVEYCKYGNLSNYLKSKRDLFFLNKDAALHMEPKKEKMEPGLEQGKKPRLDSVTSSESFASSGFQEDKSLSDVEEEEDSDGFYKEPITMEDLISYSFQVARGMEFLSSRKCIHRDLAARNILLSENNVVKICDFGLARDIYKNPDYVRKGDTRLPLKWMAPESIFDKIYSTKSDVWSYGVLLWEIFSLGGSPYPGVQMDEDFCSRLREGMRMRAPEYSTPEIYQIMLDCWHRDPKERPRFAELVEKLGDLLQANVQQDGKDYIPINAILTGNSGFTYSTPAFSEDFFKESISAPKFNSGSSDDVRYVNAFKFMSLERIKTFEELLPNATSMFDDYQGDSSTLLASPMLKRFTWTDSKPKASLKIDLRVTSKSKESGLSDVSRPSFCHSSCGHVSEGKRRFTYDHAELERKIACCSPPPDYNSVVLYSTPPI

## Oc1ccc(/C=C/c2cc(O)cc(O)c2)cc1 [Res, resveratrol]
ALK(h)
  remaining activity at 20 µM: 39%
CDK1/cyclinB(h)
  remaining activity at 20 µM: 67 ± 3%
CHK1(h)
  remaining activity at 20 µM: 95 ± 2%
Flt1(h)
  remaining activity at 20 µM: 52 ± 1%
IKKß(h)
  remaining activity at 20 µM: 116 ± 2%
NEK7(h)
  remaining activity at 20 µM: 116 ± 2%
PAK4(h)
  remaining activity at 20 µM: 103 ± 4%
PDK1(h)
  remaining activity at 20 µM: 108 ± 7%
PI 3-Kinaseβ(h)
  remaining activity at 20 µM: 107 ± 1%
